Test results taken from patent publication US20190298721A1, “STABLE PRO-VITAMIN DERIVATIVE COMPOUNDS, PHARMACEUTICAL AND DIETARY COMPOSITIONS, AND METHODS OF THEIR USE” (CORNELL UNIVERSITY, priority 2016, published 2019).

Experiments:
[1] = Chemical stability of folates incubated in Defined αMEM at 65° C., read out by L. casei assay; assay type: physicochemical; conditions: for Chemical stability (support of growth in the microbiological assay): after 24 hours incubation at 65° C., pH 7.2 (FIG. 8); for Chemical stability relative to 5-methyltetrahydrofolate: 65° C., pH 7.2, Defined αMEM (FIG. 8)
Experimental: Folic acid and various reduced folates were incubated in Defined αMEM (described above) in sterile Eppendorf tubes at 65° C. and sampled at 0, 0.5, 1, 2, 4, 8, and 24 hours. The sampled aliquots were immediately mixed with L. casei extraction buffer containing sodium ascorbate to protect folates from oxidative degradation and frozen at −80° C. The L. casei assay was performed as previously described (Suh et al., “Purification and Properties of a Folate-Catabolizing Enzyme,” J Biol. Chem. 275(45):35646-35655 (2000), which is hereby incorporated by reference in its entirety).

[2] = system: HeLa cells; experiment: Cell proliferation of HeLa cells in Defined αMEM supplemented with folate forms (bright field image analysis); assay type: cell-based; conditions: range of concentrations, approximately three doublings, compared with Leucovorin and folic acid (FIGS. 6A, 6C)
Experimental: (§1) HeLa cells and immortalized mouse fibroblasts (CHIP) cells were plated in 96-well plates, 1000 cells per well. Total cell number was monitored over time using bright field image analysis on a Celigo cytometer (Nexcelom, Inc.) according to manufacturers' protocols. Data was represented as average±standard deviation for 10 biological replicates per condition. Cells were cultured in Defined αMEM culture media (lacking folate, serine, glycine, methionine, nucleosides/nucleotides, and pyridoxine) which was supplemented with 200 μM methionine, 0.5 g/L pyridoxine, and varying concentrations of folic acid, (6S)-Leucovorin or novel folate derivative. Before plating for proliferation assays, HeLa cells and CHIP cells were cultured for three doublings in Defined αMEM lacking folate to deplete intracellular folates.

[3] = system: immortalized mouse fibroblasts (CHIP) cells; experiment: Cell proliferation of immortalized mouse fibroblasts (CHIP) in Defined αMEM supplemented with folate forms (bright field image analysis); assay type: cell-based; conditions: range of concentrations, approximately three doublings, compared with Leucovorin and folic acid (FIG. 6B)
Experimental: as §1

[4] = Stability in AIN-93G mouse food pellets; assay type: physicochemical; conditions: for at least 10 weeks; pellets stored at room temperature or −20° C. (FIGS. 9A-B)
Experimental: Folic acid and (6S)-5-formyl, 10-formyl-tetrahydrofolate were shipped to Dyets, Bethlehem, Pa. as folate sources for the formulation of AIN-93G, a defined growth diet formulated for rodents by the American Institute of Nutrition. The stability of folic acid and (6S)-5-formyl, 10-formyl-tetrahydrofolate in food pellets was determined over a 10 week period.

[5] = Mice fed AIN-93G diet containing the folate source (growth, adverse symptoms); assay type: in vivo, mouse; conditions: for Mouse growth: AIN-93G diet with the compound as folate source, over at least an 8-week period
[6] = system: HeLa cells; experiment: Total intracellular folate measurement in HeLa cells (L. casei microbiological assay); assay type: cell-based
Experimental: HeLa cells were cultured in Defined αMEM (as described above) lacking folate for two doublings to deplete cellular folates, then plated into 6-well plates (1000 cells/well) and cultured for two cell doublings with Defined αMEM culture media (described above) supplemented with 200 μM methionine, 0.5 g/L pyridoxine, and either 2 nM or 20 nM (6S)-Leucovorin or novel folate derivative. Total intracellular folates were quantified using a microbiological (Lactobacillus casei, or L. casei) assay as previously described (Suh et al., “Purification and Properties of a Folate-Catabolizing Enzyme,” J. Biol. Chem. 275(45):35646-35655 (2000), which is hereby incorporated by reference in its entirety). Data is represented as mean±SEM of three biological replicates per condition.

[7] = Acid stability (conversion to 5,10-methenyltetrahydrofolate); assay type: physicochemical; conditions: conversion to 5,10-methenyltetrahydrofolate in acid; no method described

SMILES	Chemical stability (support of growth in the microbiological assay) [1]	Stability as a component of AIN-93G rodent food [4]	Chemical stability relative to 5-methyltetrahydrofolate [1]	Chemical stability relative to 5-methyltetrahydrofolate ([1]; 10-formyltetrahydrofolate)	Mouse growth [5]	other results
Nc1nc2c(c(=O)[nH]1)N(C=O)[C@H](CN(C=O)c1ccc(C(=O)N[C@@H](CCC(=O)O)C(=O)O)cc1)CN2 [(6S)-5-formyl, 10-formyltetrahydrofolate]		completely stable	chemically more stable than 5-methyltetrahydrofolate	increased chemical stability relative to (6S) 5-methyltetrahydrofolate	promote mouse growth	Proliferation / support of cell growth ([2]; 10-formylTHF): support cell growth in a similar dose-response as (6S)-Leucovorin and are superior to folic acid; Proliferation / support of cell growth ([3]; 10-formylTHF): support cell growth in a similar dose-response as (6S)-Leucovorin and are superior to folic acid; Adverse symptoms ([5]; mice fed AIN-93G diet containing the compound for 8 weeks): without any adverse symptoms
CN1c2c(nc(N)[nH]c2=O)NC[C@H]1CN(C=O)c1ccc(C(=O)N[C@@H](CCC(=O)O)C(=O)O)cc1 [(6S)-5-methyl, 10-formyltetrahydrofolate]			chemically more stable than 5-methyltetrahydrofolate	increased chemical stability relative to (6S) 5-methyltetrahydrofolate		Proliferation / support of cell growth ([2]; 10-formyl-THF): support cell growth in a similar dose-response as (6S)-Leucovorin and are superior to folic acid; Proliferation / support of cell growth ([3]; 10-formyl-THF): support cell growth in a similar dose-response as (6S)-Leucovorin and are superior to folic acid; Total cellular folate ([6]; HeLa cells cultured with 20 nM compound, compared with 2 nM (6S)-Leucovorin): equivalent to total cellular folate in HeLa cells cultured in 2 nM (6S)-Leucovorin; Total intracellular folate levels ([6]; HeLa cells, 2 nM or 20 nM folate form, (6S)-Leucovorin vs (6S)-5-methyl, 10-formyltetrahydrofolate (FIG. 7)): higher with (6S)-Leucovorin than with (6S)-5-methyl, 10-formyltetrahydrofolate
Nc1nc2c(c(=O)[nH]1)N(C=O)[C@@H](CNc1ccc(C(=O)N[C@@H](CCC(=O)O)C(=O)O)cc1)CN2 [(6S)-Leucovorin, (6S)-5-formyltetrahydrofolate, reference compound]	continued to support growth					Stability in acid [7]: unstable in acid

The next lines start with results.

Chemical stability (support of growth in the microbiological assay) [1]	Stability as a component of AIN-93G rodent food [4]	SMILES	Chemical stability relative to 5-methyltetrahydrofolate [1]	Chemical stability relative to 5-methyltetrahydrofolate ([1]; 10-formyltetrahydrofolate)	Mouse growth [5]	other results
completely destroyed		CN1c2c(nc(N)[nH]c2=O)NC[C@@H]1CNc1ccc(C(=O)N[C@@H](CCC(=O)O)C(=O)O)cc1 [5-methyl-tetrahydrofolate, (6S) 5-methyltetrahydrofolate, reference compound]				
continued to support growth	completely stable	Nc1nc2ncc(CNc3ccc(C(=O)N[C@@H](CCC(=O)O)C(=O)O)cc3)nc2c(=O)[nH]1 [folic acid, reference compound]			promote mouse growth	
